This is an account of results in US20040006236A1, “Diaminopropionic acid derivatives” (priority 1999, published 2004).

In the first assay the target is T1, ICAM-1 binding to immobilized Mac-1 (Homo sapiens, UniProt P05107+P11215).
T1 construct: made in house; host or cells: transfected 293 cells (Mac-1)
T1 sequence (P05107 23-769, other chains not shown): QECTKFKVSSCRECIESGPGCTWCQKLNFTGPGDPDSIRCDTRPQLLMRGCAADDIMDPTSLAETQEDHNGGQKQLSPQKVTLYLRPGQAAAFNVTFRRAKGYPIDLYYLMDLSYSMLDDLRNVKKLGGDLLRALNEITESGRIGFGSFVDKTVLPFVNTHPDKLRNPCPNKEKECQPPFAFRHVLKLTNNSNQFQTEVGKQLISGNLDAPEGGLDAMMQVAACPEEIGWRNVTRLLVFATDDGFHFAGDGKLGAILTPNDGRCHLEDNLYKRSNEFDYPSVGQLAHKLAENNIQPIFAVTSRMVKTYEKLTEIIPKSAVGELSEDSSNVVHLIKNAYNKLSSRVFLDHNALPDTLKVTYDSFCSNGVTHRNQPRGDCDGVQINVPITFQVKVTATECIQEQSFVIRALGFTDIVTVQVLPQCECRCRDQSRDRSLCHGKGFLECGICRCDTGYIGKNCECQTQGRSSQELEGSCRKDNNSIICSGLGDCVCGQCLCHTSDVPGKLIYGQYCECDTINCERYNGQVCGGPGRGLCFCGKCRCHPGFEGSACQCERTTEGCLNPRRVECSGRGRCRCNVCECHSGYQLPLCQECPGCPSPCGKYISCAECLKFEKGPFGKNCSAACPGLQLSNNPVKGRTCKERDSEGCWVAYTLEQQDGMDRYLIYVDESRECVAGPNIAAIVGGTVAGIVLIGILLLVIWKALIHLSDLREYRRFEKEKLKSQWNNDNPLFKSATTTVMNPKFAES
Briefly: Mac-1/ICAM-1 screening assay (solid-phase ELISA). To be noted: Mac-1/ICAM-1 Protein-Protein Assay IC50. Here is the method: (b) Mac-1/ICAM-1 screening test: Mac-1/ICAM-1 antagonist activity, defined as the ability to compete with ICAM-1 binding to immobilized Mac-1, was quantitated by a solid-phase ELISA.
(§1) Membrane-bound Mac-1 derived from transfected 293 cells was coated onto 96-well microtiter plates (50 μL/well, 3 μg/mL Mac-1 in 20 mM Hepes, pH 7.2/0.14 M NaCl/1 mM MnCl2) overnight at 4° C. The plates were blocked with 100 μL/well of 0.5% BSA in 20 mM Hepes, pH 7.2/0.14 M NaCl/1 mM MnCl2 at 37° C. for 1 h and washed 3 times (120 μL each) with Binding Buffer (20 mM Hepes, pH 7.2/0.14 M NaCl/1 mM MnCl2/0.05% Tween 20). Test compounds were dissolved in 100% DMSO and diluted 1:50 in Binding Buffer plus 10% DMSO. A series of 1:4 dilutions were performed for each compound (concentration range, 0.12 nM-20 μM). Each dilution (25 μL/well) was added to the plates, followed by 25 μL/well of 5 dICAM-Ig (40 μg/mL in Binding Buffer). The plates were shaken vigorously for 1 min (room temperature), followed by gentle agitation for 2 h (37° C.), and washed with Binding Buffer (3 times, 120 μL each). HRP-conjugated goat anti-human IgG(Fc-specific) antibody (0.125 μg/mL in Binding Buffer plus 0.05% BSA) was added to each well (50 μL/well), followed by incubation for 1 h at 37° C. The plates were then washed 3 times with Binding Buffer (120 μL each). TMB solution (100 μL/well) was added to each well for color development for 10 min. The reaction was stopped with 1 M H3PO4 (100 μL/well) and the plates were read at 450 nm. The inhibitory activities of test compounds were determined by the IC50s.
as §1, with “Mac-1/ICAM-1 antagonist activity, defined as the ability to compete with ICAM-1 binding to immobilized Mac-1, was quantitated by a solid-phase ELISA. Membrane-bound” for “Membrane-bound”, “5dICAM-Ig” for “5 dICAM-Ig”, “nm.” for “nm. The inhibitory activities of test compounds were determined by the IC50s.”
As to `O=C(Cc1ccc([N+](=O)[O-])cc1[N+](=O)[O-])NC[C@H](NC(=O)c1ccc(C(=O)NCc2cccc(O)c2)cc1Cl)C(=O)O` [Example 83], the IC50 worked out at 0.058 µM.
Consider `O=C(NCc1cccc(O)c1)c1ccc(C(=O)N[C@@H](CNC(=O)c2cc([N+](=O)[O-])cc([N+](=O)[O-])c2)C(=O)O)c(Cl)c1` [Example 129], for which the IC50 worked out at 0.037 µM.

Still in this assay, the particulars now being: read-out: Mac-1/ICAM-1 Protein-Protein Assay IC50.
Turning to `O=C(CC1CCCCC1)NC[C@H](NC(=O)c1ccc(C(=O)NCc2cccc(O)c2)cc1Cl)C(=O)O` [Example 78], the IC50 is 0.094 µM.
Regarding `O=C(Cc1ccccc1)NC[C@H](NC(=O)c1ccc(C(=O)NCc2cccc(O)c2)cc1Cl)C(=O)O` [Example 79], the IC50 came out at 0.074 µM.
For the compound `COc1ccc(CC(=O)NC[C@H](NC(=O)c2ccc(C(=O)NCc3cccc(O)c3)cc2Cl)C(=O)O)cc1` [Example 80], the IC50 is 0.134 µM.
Take `O=C(Cc1ccc([N+](=O)[O-])cc1)NC[C@H](NC(=O)c1ccc(C(=O)NCc2cccc(O)c2)cc1Cl)C(=O)O` [Example 81]: the IC50 was 0.058 µM.
`O=C(Cc1cccc(C(F)(F)F)c1)NC[C@H](NC(=O)c1ccc(C(=O)NCc2cccc(O)c2)cc1Cl)C(=O)O` [Example 82]: the IC50 was determined as 0.062 µM.
Turning to `O=C(Cc1cccs1)NC[C@H](NC(=O)c1ccc(C(=O)NCc2cccc(O)c2)cc1Cl)C(=O)O` [Example 84], the IC50 came to 0.06 µM.
Same read-out and setting: the same measure for `O=C(NCc1cccc(O)c1)c1ccc(C(=O)N[C@@H](CNC(=O)C(c2ccccc2)c2ccccc2)C(=O)O)c(Cl)c1` [Example 86]: 0.179 µM; for `O=C(Cc1ccc2ccccc2c1)NC[C@H](NC(=O)c1ccc(C(=O)NCc2cccc(O)c2)cc1Cl)C(=O)O` [Example 87]: 0.087 µM.
Turning to `O=C(CC1c2ccccc2-c2ccccc21)NC[C@H](NC(=O)c1ccc(C(=O)NCc2cccc(O)c2)cc1Cl)C(=O)O` [Example 88], the IC50 came to 0.273 µM.
On the same count and under the same terms, the value for `O=C(C[n+]1csc2ccccc21)NC[C@H](NC(=O)c1ccc(C(=O)NCc2cccc(O)c2)cc1Cl)C(=O)O` [Example 89] was 0.464 µM; that for `O=C(CSc1ncccn1)NC[C@H](NC(=O)c1ccc(C(=O)NCc2cccc(O)c2)cc1Cl)C(=O)O` [Example 91] was 0.174 µM.
As to `CC(C)(C)C(=O)NC[C@H](NC(=O)c1ccc(C(=O)NCc2cccc(O)c2)cc1Cl)C(=O)O` [Example 92], the IC50 came to 0.048 µM.
Regarding `O=C(NCc1cccc(O)c1)c1ccc(C(=O)N[C@@H](CNC(=O)C23CC4CC(CC(C4)C2)C3)C(=O)O)c(Cl)c1` [Example 93], the IC50 was found to be 0.057 µM.
Same read-out and setting: the value for `O=C(CCc1ccccc1)NC[C@H](NC(=O)c1ccc(C(=O)NCc2cccc(O)c2)cc1Cl)C(=O)O` [Example 94] was 0.042 µM; that for `O=C(NCc1cccc(O)c1)c1ccc(C(=O)N[C@@H](CNC(=O)c2cnccn2)C(=O)O)c(Cl)c1` [Example 170] was 0.116 µM; that for `O=C(NCc1cccc(O)c1)c1ccc(C(=O)N[C@@H](CNC(=O)c2cnc3ccccc3c2)C(=O)O)c(Cl)c1` [Example 183] was 0.222 µM.
For the compound `O=C(NCc1cccc(O)c1)c1ccc(C(=O)N[C@@H](CNC(=O)c2cc(=O)c3ccccc3o2)C(=O)O)c(Cl)c1` [Example 187], the IC50 was found to be 0.056 µM.
As to `O=C(NCc1cccc(O)c1)c1ccc(C(=O)N[C@@H](CNC(=O)c2ccc3c(c2)S(=O)(=O)c2ccccc2C3=O)C(=O)O)c(Cl)c1` [Example 192], the IC50 was determined as 0.04 µM.
In the case of `CC(=O)NC[C@H](NC(=O)c1ccc(C(=O)NCc2cccc(O)c2)cc1Cl)C(=O)O` [Example 193], the IC50 is 0.049 µM.
Turning to `CC(C)C(=O)NC[C@H](NC(=O)c1ccc(C(=O)NCc2cccc(O)c2)cc1Cl)C(=O)O` [Example 194], the IC50 was found to be 0.036 µM.
On the same count and under the same terms, the value for `CC(C)CC(=O)NC[C@H](NC(=O)c1ccc(C(=O)NCc2cccc(O)c2)cc1Cl)C(=O)O` [Example 195] was 0.047 µM; that for `CSCC[C@H](N)C(=O)NC[C@H](NC(=O)c1ccc(C(=O)NCc2cccc(O)c2)cc1Cl)C(=O)O` [Example 197] was 0.038 µM.
